Read-outs that look alike come from different tables or passages of the source.
Tests used:
CYP2D6 = CYP2D6 (Homo sapiens (Human), UniProt P10635); test: Human liver microsomal CYP inhibition test, CYP2D6; type: in vitro ADME; conditions: human liver microsomes 0.2 mg/mL; substrate Dextromethorphan
Experimental: (§1) 3.1 Buffer solutions: (1) potassium phosphate 100 mM; (2) magnesium chloride, 33 mM;
(§2) 3.2.3 Reservoir for compounds to be tested: Dissolving the compounds to be tested in DMSO to form a 10 mM DMSO solution.
(§3) 3.4.1 Preparation of human liver microsomal working solution (1.27×) (final concentration: 0.2 mg/mL)
(§4) 3.5.3 Adding 20 μL of substrate solution to the appropriate wells and 20 μL of potassium phosphate buffer to the blank wells;
(§5) 3.5.4 Adding 2 μL of different concentrations of target compounds (final concentrations from 0.05 μM to 50 μM, 7 concentrations in total) or standard inhibitors to each well, with 2 μL of methanol solution in the non-inhibitor and blank wells;
(§6) 3.5.5 Adding 1.012 mL of liver microsomes to 78.988 mL of potassium phosphate buffer, then adding 158 μL of liver microsomes solution to all wells; preheating the well plate for 10 minutes in a 37° C. water bath;
(§7) 3.5.6 Weighing 129.1 mg NADPH (purchased from SyncoZymes Co. Ltd.) and adding to 15.0 mL of 33 Mm MgCl2 solution to give a 10 mM concentration, adding 20 μL to each well;
(§8) 3.5.7 Mixing and incubating the well plate in a 37° C. water bath for 10 minutes, then adding 400 μL of cold termination solution at the appropriate time point;
(§9) 3.5.8 Centrifuging the sample at 4000 rpm for 20 minutes to precipitate the protein. Transferring 200 μL of supernatant to 100 μL of HPLC water and shaking for 10 minutes. The samples were analyzed by LC/MS/MS;
(§10) Percentage inhibition was plotted for blank control and different concentrations of target compounds by using XL fitting or SigmaPlot and the data were analyzed by non-linear regression. IC50 values were determined by using either 3-parameter or 4-parameter logistic equations.

Nav1.8 sodium channel = Nav1.8 sodium channel (Homo sapiens (Human), UniProt Q9Y5Y9); test: NaV1.8 blocking activity, manual patch clamp; type: cell-based; conditions: CHO cell line stably expressing Nav1.8
Sequence of Nav1.8 sodium channel (Q9Y5Y9 whole entry): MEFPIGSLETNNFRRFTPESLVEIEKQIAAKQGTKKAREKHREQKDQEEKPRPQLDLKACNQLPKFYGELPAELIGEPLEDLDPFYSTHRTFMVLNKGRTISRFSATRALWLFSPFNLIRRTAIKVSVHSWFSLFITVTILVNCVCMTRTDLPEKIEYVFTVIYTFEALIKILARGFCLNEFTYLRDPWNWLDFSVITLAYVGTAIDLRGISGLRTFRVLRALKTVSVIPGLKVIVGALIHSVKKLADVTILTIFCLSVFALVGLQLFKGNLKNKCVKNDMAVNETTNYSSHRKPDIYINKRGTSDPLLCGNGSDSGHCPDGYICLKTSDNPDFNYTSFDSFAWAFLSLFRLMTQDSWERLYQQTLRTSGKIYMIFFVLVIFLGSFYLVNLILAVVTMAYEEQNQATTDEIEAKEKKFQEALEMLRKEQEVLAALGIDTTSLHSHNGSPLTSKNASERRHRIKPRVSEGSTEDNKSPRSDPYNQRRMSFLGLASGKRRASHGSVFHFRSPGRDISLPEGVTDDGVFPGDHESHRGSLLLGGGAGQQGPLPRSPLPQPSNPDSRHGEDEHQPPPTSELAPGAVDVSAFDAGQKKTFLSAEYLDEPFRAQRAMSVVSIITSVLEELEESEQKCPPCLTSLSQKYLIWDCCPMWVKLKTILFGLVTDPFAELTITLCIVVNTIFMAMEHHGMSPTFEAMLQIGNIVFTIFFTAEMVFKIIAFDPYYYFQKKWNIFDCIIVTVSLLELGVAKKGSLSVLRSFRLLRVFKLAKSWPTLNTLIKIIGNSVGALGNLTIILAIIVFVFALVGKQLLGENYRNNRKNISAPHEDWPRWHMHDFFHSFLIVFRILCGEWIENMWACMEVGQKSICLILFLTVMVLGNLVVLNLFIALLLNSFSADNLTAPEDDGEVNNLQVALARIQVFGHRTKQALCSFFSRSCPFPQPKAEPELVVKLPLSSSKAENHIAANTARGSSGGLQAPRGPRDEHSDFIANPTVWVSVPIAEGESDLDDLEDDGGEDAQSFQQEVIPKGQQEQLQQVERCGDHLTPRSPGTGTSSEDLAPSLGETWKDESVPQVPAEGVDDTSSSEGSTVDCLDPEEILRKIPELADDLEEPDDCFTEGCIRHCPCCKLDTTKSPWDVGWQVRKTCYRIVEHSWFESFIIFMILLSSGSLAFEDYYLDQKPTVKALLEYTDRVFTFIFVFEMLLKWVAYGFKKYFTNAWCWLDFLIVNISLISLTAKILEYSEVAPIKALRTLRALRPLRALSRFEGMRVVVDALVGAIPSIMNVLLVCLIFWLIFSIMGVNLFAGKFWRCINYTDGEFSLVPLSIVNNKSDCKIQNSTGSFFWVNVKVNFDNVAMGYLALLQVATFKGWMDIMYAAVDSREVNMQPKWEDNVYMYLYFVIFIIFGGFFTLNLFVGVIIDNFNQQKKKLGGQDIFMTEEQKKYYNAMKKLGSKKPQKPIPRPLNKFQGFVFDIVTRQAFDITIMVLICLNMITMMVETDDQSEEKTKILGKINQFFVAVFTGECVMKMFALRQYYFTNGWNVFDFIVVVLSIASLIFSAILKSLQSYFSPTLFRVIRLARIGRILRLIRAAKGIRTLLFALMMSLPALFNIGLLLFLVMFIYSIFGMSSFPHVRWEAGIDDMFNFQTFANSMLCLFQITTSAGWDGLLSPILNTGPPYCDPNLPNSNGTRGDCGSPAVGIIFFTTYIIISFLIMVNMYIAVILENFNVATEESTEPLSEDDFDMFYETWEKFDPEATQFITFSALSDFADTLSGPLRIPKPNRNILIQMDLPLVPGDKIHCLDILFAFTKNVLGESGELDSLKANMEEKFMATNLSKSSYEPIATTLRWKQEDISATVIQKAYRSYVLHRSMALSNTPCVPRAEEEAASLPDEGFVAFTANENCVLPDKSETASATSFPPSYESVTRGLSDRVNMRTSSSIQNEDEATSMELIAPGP
Experimental: The NaV1.8 blocking activity was determined by using a manual patch clamp technique to detect the effect of the subject on the channel currents of stably overexpressed Nav1.8.
CHO cell line stably expressing the Nav1.8 sodium channel was used for the experiments, gene information: sodium channel, voltage-gated, type 8, alpha (SCN10A), cDNA strictly similar to GenBank accession number: NM 006514.
Cells were cultured in HAM'S/F-12 medium containing 10% foetal bovine serum and 10 μg/mL Blasticidin, 200 μg/mL Hygromycin B, and 100 μg/mL Zeocin at 37° C., 5% CO2. For expansion or maintenance cultures, cells were treated with 0.25%-Trypsin-EDTA, washed and centrifuged, and then inoculated in 6-cm cell culture dishes with 2.5×10^5lls per cell culture dish (final volume: 5 mL).
Prior to the patch clamp detection, cells were separated with 0.25%-Trypsin-EDTA and 6.5×10^3 cells were spread onto coverslips and incubated (final volume: 500 μL) in 24-well plates for 18 hours, then the test was performed.
50 mM CsCl, 10 mM NaCl, 10 mM HEPES, 60 mM CsF, 20 mM EGTA, and pH was adjusted to 7.2 with CsOH. • Instrument information is provided in Table 2 below:
Prior to Nav1.8 channel current testing, a blank control solution (DMSO) was diluted into 10 ml of extracellular fluid as the working solution. Positive controls and subjects were first diluted with different doses of DMSO depending on the final concentration before being diluted as working solution using extracellular fluid. 100 nM TTX was added to each working solution to block the TTX-S current. The working solution was sonicated for 20 min before performing the patch clamp test detection.
Patch clamp manipulation: firstly, the capillary glass tube was drawn into a recording electrode using a microelectrode puller, then the electrode filled with intracellular fluid was loaded into the microelectrode holder, and the microelectrode manipulator was manoeuvred under an inverted microscope to immerse the electrode into the extracellular fluid and record the electrode resistance (Rpip). The electrode was then slowly contacted to the cell surface and negative pressure suction was given to form a GQ2 seal. At this time, fast capacitance compensation was performed and negative pressure was continually applied to suction through the cell membrane to form a whole-cell recording pattern. Finally, slow capacitance compensation was performed and experimental parameters such as series resistance (Rs) were recorded. No leakage compensation was given.
Drug administration was initiated when the Nav1.8 current was stabilized for whole-cell recordings, and the next concentration was detected after each drug concentration had acted for approximately 5 min (or until the current was stable). Cell-lined coverslips were placed in the recording bath under an inverted microscope, and the blank control external solution as well as the working solution of the compound to be tested flowed sequentially from low to high concentrations through the recording bath by using gravitational perfusion and thus acted on the cells, and a peristaltic pump was used to exchange fluids during the recording. The current detected by each cell in the compound-free external fluid served as its own control. Each concentration was repeated independently 2-3 times. All electrophysiological experiments were performed at room temperature.
The voltage stimulation scheme for whole-cell patch-clamp recording of Nav1.8 currents was as follows: when a whole-cell seal was formed, the voltage was clamped at −120 mV. The resting state recording of sodium currents was performed by maintaining the voltage for 5s and then depolarizing it to 0 mV, and then administering a depolarizing pulse (TP1) to 0 m V for 50 ms for detecting the resting state sodium currents. For half-inactivated state recording, the voltage was first stepped at different voltages and maintained for 5s and then a depolarizing pulse was given to 0 mV to detect the Vhalf. […]

CYP1A2 = CYP1A2 (Homo sapiens (Human), UniProt P05177); test: Human liver microsomal CYP inhibition test, CYP1A2; type: in vitro ADME
Sequence of CYP1A2 (P05177 whole entry): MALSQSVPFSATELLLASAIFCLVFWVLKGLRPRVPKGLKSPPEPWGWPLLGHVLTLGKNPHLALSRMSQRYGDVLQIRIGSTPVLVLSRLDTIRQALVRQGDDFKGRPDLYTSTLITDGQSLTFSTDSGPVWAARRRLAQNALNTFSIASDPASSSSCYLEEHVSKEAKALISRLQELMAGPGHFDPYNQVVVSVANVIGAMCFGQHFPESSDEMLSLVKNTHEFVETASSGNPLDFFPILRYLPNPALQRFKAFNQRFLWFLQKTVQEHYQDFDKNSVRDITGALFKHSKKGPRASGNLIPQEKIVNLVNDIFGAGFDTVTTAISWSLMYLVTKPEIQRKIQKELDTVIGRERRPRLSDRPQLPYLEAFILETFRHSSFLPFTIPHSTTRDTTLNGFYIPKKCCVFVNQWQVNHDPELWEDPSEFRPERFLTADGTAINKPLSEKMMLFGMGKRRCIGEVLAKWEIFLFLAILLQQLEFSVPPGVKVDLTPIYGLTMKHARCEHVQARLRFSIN
Experimental: as §1, §2, §3, §4, §5, §6, §7, §8, §9, §10

[1] = human liver microsomes 0.2 mg/mL, substrate Phenacetin, read-out: IC50 (μM) CYP1A2

Sequence of CYP2D6 (P10635 whole entry): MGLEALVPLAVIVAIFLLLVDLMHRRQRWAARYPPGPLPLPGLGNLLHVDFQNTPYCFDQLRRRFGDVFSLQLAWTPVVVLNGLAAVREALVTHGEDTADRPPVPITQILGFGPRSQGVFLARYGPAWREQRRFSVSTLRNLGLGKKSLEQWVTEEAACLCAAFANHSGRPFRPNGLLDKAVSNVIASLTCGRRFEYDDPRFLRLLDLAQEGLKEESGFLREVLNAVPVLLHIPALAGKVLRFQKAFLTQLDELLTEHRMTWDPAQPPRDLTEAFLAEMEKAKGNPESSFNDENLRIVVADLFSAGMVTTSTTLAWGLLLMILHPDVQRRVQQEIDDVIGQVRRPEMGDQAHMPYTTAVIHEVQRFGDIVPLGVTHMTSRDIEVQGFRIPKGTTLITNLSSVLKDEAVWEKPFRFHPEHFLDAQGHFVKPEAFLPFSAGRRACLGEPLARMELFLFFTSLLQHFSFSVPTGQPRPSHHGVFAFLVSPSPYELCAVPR

| Compound | IC50 (CYP2D6) | Blocking rate (%) @3 nM (Nav1.8 sodium channel) | Blocking rate(%) @10 nM (Nav1.8 sodium channel) | IC50 (CYP1A2; [1]) | IC50 (Nav1.8 sodium channel) | IC50 (CYP1A2; microsomes) |
| --- | --- | --- | --- | --- | --- | --- |
| COc1c([C@H]2[C@H](C(=O)Nc3ccc[n+]([O-])c3)N[C@@](C)(C(F)(F)F)[C@H]2C)ccc(F)c1F [Compound 7, 3-((2R,3S,4S,5R)-3-(3,4-difluoro-2-methoxyphenyl)-4,5-dimethyl-5-(trifluoromethyl)pyrrolidine-2-carboxamido)pyridine 1-oxide] | > 50 µM | 67.34% | 91.89% | > 50 µM |  |  |
| COc1c([C@H]2[C@H](C(=O)Nc3ccnc(C(N)=O)c3)O[C@@](C)(C(F)(F)F)[C@H]2C)ccc(F)c1F [VX-548, reference compound] | > 50 µM |  |  | > 50 µM |  |  |
| 4-((2R,3S,4S,5R)-3-(3,4-difluoro-2-(methoxy-d3)phenyl)-4,5-dimethyl-5-(trifluoromethyl) pyrrolidine-2-carboxamido)pyridinamide [Compound 11] | > 50 µM | 90.26% | 97.84% |  | 0.00073 µM | > 50 µM |
| COc1c([C@H]2[C@H](C(=O)Nc3cccc(S(N)(=O)=O)c3)N[C@@](C)(C(F)(F)F)[C@H]2C)ccc(F)c1F [Compound 8, (2R,3S,4S,5R)-3-(3,4-difluoro-2-methoxyphenyl)-4,5-dimethyl-aza-(3-aminosulfonylphenyl)-5-(trifluoromethyl) pyrrolidine-2-carboxamide] | 41.6 µM | 93.13% | 100.00% |  |  | > 50 µM |
